Measured values as given in paper PMC4506051, “Pharmacokinetic Profiles of Active Ingredients and Its Metabolites Derived from Rikkunshito, a Ghrelin Enhancer, in Healthy Japanese Volunteers: A Cross-Over, Randomized Study” (PLoS ONE, 2015).

Experiments:
[1] = Exploratory trial: plasma concentration of rikkunshito ingredients after single oral rikkunshito 7.5 g; assay type: in vivo
Procedure: A random sequence was generated using a computer. The safety endpoint was evaluated in all volunteers.
(§1) In the first exploratory trial, 20-mL blood samples were collected from the cutaneous vein in the subjects’ forearm via a blood sampling tube that contained heparin at 0 (preadministration), 0.5, 1, 2, 4, and 8 h after a single oral administration of rikkunshito (Lot E24652). The dose of rikkunshito used in this trial was 7.5 g/day, which is the clinical daily dose, to widely explore rikkunshito-derived ingredients that enter the blood. Along with plasma, urine samples were collected at three points: between dinner and bedtime (preadministration), between 0 and 4 h after administration, and between 4 and 8 h after administration. The blood was immediately centrifuged at 1700 ×g for 10 min to obtain plasma. Plasma and urine fractions were stored at −80°C or lower until analysis.
(§2) For quantification of synephrine, 5 µL of standard solution or methanol was added to 100 µL plasma or urine samples followed by mixing. Ten microliters of erythromycin [internal standard (IS)] solution was added to the solutions followed by mixing and centrifugation (20,400 ×g, 5 min, 4°C). The supernatants were loaded onto an Ostro 96-well plate (Waters) and centrifuged (1500 ×g, 3 min, 4°C) followed by injection into the LC–MS/MS.
(§3) For quantification of 30 ingredients other than atractylodin and synephrine, 25 µL of standard solution or methanol was added to 500 µL plasma or urine samples followed by mixing. Atractylenolide III or digoxin (IS) solution (50 μL) was added to the solutions followed by mixing. For urine, 400 µL of blank plasma was added to the solutions. Ammonium acetate solution (100 mM, 100 or 400 µL) was added to the solutions followed by mixing. For enzymatic treatment, plasma and urine samples were incubated with β-glucuronidase (100 units in 100 mM ammonium acetate) for 2 h at 37°C. A solid-phase cartridge (OASIS HLB, 30 mg/1cc, Waters) was conditioned with methanol and 10 mM ammonium acetate solution, and the samples were loaded onto the cartridge. The cartridge was washed water : methanol (9:1, v/v), and 1.5 mL of methanol and 30 µL of propylene glycol were added to the cartridge to elute the analytes. The mixtures were dried at 25°C under a stream of nitrogen gas. Furthermore, 100 μL of 10 mM ammonium acetate : methanol (8:2, v/v) was added to the dried samples followed by mixing and sonication. The solutions were filtered (0.22 µm) and followed by injection into the LC–MS/MS system. […] Those analytical conditions are summarized in S2 Table and S3 Table.

[2] = Stability of ingredients in gastric pH solution (pH 1.2, 37°C); assay type: physicochemical
Procedure: Rikkunshito gradually dissolved in acidic solution (pH 1.2) at 37°C, and the concentration of atractylodin after adding 0.25, 0.5, 1, and 2 h was measured by gas chromatography–mass spectrometry.

[3] = Exploratory trial: amount of rikkunshito ingredients in urine; assay type: in vivo, human; details: mean ± S.D., n = 4; for Amount in urine, 0–4 h: 0–4 h after single oral rikkunshito 7.5 g; for Amount in urine, 4–8 h: 4–8 h after single oral rikkunshito 7.5 g; for Amount in urine, Pre: preadministration (between dinner and bedtime)
Procedure: as §1, §2, §3

[4] = rikkunshito in acidic solution (pH 1.2) at 37°C, 0.5 h
[5] = rikkunshito in acidic solution (pH 1.2) at 37°C, 1 h
[6] = rikkunshito in acidic solution (pH 1.2) at 37°C, 2 h

| Plasma concentration, 0 h ([1]; in vivo, po) | Plasma concentration, 1 h ([1]; in vivo, po) | Plasma concentration, 2 h ([1]; in vivo, po) | Plasma concentration, 8 h ([1]; in vivo, po) | Stability in gastric pH solution, Quantitative value ([2]; 0.5 h, pH 1.2) [ng/mL] | Stability in gastric pH solution, Quantitative value ([2]; 1 h, pH 1.2) [ng/mL] | Stability in gastric pH solution, Quantitative value ([2]; 2 h, pH 1.2) [ng/mL] | Amount in urine, 0–4 h [3] | Amount in urine, 4–8 h [3] [ng] | Amount in urine, Pre [3] | Compound | Plasma concentration, 0.5 h ([1]; in vivo, po) | Stability in gastric pH solution, Quantitative value [2, 4] [ng/mL] | Stability in gastric pH solution, Quantitative value [2, 5] [ng/mL] | Stability in gastric pH solution, Quantitative value [2, 6] [ng/mL] | other results |
| --- | --- | --- | --- | --- | --- | --- | --- | --- | --- | --- | --- | --- | --- | --- | --- |
| BQL | BQL | BQL | BQL | 5.50 | 6.62 | 5.95 |  |  |  | COc1ccc(-c2cc(=O)c3c(OC)c(OC)c(OC)c(OC)c3o2)cc1 [Tangeretin] |  |  |  |  | concentration at 0.5 h ([1]; human, in vivo, po): 0.00573 ± 0.0115 ng/mL; Plasma concentration, 4 h ([1]; in vivo, po): BQL |
|  |  |  |  | 174 | 118 | 41.6 | 620 ± 331 ng | 638 ± 319 | BQL | CC(C)=CCC[C@](C)(O[C@@H]1O[C@H](CO)[C@@H](O)[C@H](O)[C@H]1O)[C@H]1CC[C@]2(C)[C@@H]1[C@H](O)C[C@@H]1[C@@]3(C)CC[C@H](O)C(C)(C)[C@@H]3[C@@H](O[C@@H]3O[C@H](CO)[C@@H](O)[C@H](O)[C@H]3O)C[C@]12C [Ginsenoside Rg1] |  |  |  |  |  |
|  |  |  |  | 98.5 | 68.1 | 20.3 |  |  |  | CC(C)=CCC[C@](C)(O[C@@H]1O[C@H](CO)[C@@H](O)[C@H](O)[C@H]1O)[C@H]1CC[C@]2(C)[C@@H]1[C@H](O)C[C@@H]1[C@@]3(C)CC[C@H](O[C@@H]4O[C@H](CO)[C@@H](O)[C@H](O)[C@H]4O[C@@H]4O[C@H](CO)[C@@H](O)[C@H](O)[C@H]4O)C(C)(C)[C@@H]3CC[C@]12C [Ginsenoside Rd] |  |  |  |  | Plasma concentration, 0 h ([1]; 0 h (preadministration), single oral rikkunshito 7.5 g, mean ± S.D., n = 4): BQL; Plasma concentration, 0.5 h ([1]; 0.5 h after single oral rikkunshito 7.5 g, mean ± S.D., n = 4): BQL; Plasma concentration, 2 h ([1]; 2 h after single oral rikkunshito 7.5 g, mean ± S.D., n = 4): BQL; Plasma concentration, 4 h ([1]; 4 h after single oral rikkunshito 7.5 g, mean ± S.D., n = 4): BQL; Plasma concentration, 8 h ([1]; 8 h after single oral rikkunshito 7.5 g, mean ± S.D., n = 4): BQL; concentration at 1 h ([1]; human, in vivo, 1 h after single oral rikkunshito 7.5 g, mean ± S.D., n = 4): 0.0308 ± 0.0615 ng/mL |
| BQL | BQL | BQL | BQL | 188 | 115 | 39.3 |  |  |  | CC(C)=CCC[C@](C)(O[C@@H]1O[C@H](CO[C@@H]2O[C@@H](CO)[C@H](O)[C@H]2O)[C@@H](O)[C@H](O)[C@H]1O)[C@H]1CC[C@]2(C)[C@@H]1[C@H](O)C[C@@H]1[C@@]3(C)CC[C@H](O[C@@H]4O[C@H](CO)[C@@H](O)[C@H](O)[C@H]4O[C@@H]4O[C@H](CO)[C@@H](O)[C@H](O)[C@H]4O)C(C)(C)[C@@H]3CC[C@]12C [Ginsenoside Rc] | BQL |  |  |  | concentration at 4 h ([1]; human, in vivo, po): 0.0303 ± 0.0605 ng/mL |
|  |  |  |  |  |  |  |  |  |  | CCCCCCCCC[C@H](O)CC(=O)CCc1ccc(O)c(OC)c1 [[10]-gingerol, [10]-Gingerol] |  | 8.07 | 7.53 | 7.62 |  |
|  |  |  |  | 96.7 | 58.4 | 23.7 | BQL | 30.6 ± 61.2 | BQL | CC(C)=CCC[C@](C)(O[C@@H]1O[C@H](CO)[C@@H](O)[C@H](O)[C@H]1O)[C@H]1CC[C@]2(C)[C@@H]1[C@H](O)C[C@@H]1[C@@]3(C)CC[C@H](O)C(C)(C)[C@@H]3[C@@H](O[C@@H]3O[C@H](CO)[C@@H](O)[C@H](O)[C@H]3O[C@@H]3O[C@@H](C)[C@H](O)[C@@H](O)[C@H]3O)C[C@]12C [Ginsenoside Re] |  |  |  |  |  |
| BQL | BQL | BQL | BQL | 297 | 202 | 86.4 |  |  |  | CC(C)=CCC[C@](C)(O[C@@H]1O[C@H](CO[C@@H]2O[C@H](CO)[C@@H](O)[C@H](O)[C@H]2O)[C@@H](O)[C@H](O)[C@H]1O)[C@H]1CC[C@]2(C)[C@@H]1[C@H](O)C[C@@H]1[C@@]3(C)CC[C@H](O[C@@H]4O[C@H](CO)[C@@H](O)[C@H](O)[C@H]4O[C@@H]4O[C@H](CO)[C@@H](O)[C@H](O)[C@H]4O)C(C)(C)[C@@H]3CC[C@]12C [Ginsenoside Rb1] | BQL |  |  |  | concentration at 4 h ([1]; human, in vivo, po): 0.175 ± 0.118 ng/mL |
|  |  |  |  |  |  |  |  |  |  | CC(C)=CCC[C@](C)(O)[C@H]1CC[C@]2(C)[C@@H]1[C@H](O)C[C@@H]1[C@@]3(C)CC[C@H](O)C(C)(C)[C@@H]3[C@@H](O[C@@H]3O[C@H](CO)[C@@H](O)[C@H](O)[C@H]3O[C@@H]3O[C@@H](C)[C@H](O)[C@@H](O)[C@H]3O)C[C@]12C [ginsenoside Rg2, Ginsenoside Rg2] |  | 121 | 157 | 126 |  |
|  |  |  |  | 275 | 168 | 77.3 | 202 ± 202 ng | 84.6 ± 90.1 | BQL | CC(C)=CCC[C@](C)(O[C@@H]1O[C@H](CO[C@@H]2OC[C@H](O)[C@H](O)[C@H]2O)[C@@H](O)[C@H](O)[C@H]1O)[C@H]1CC[C@]2(C)[C@@H]1[C@H](O)C[C@@H]1[C@@]3(C)CC[C@H](O[C@@H]4O[C@H](CO)[C@@H](O)[C@H](O)[C@H]4O[C@@H]4O[C@H](CO)[C@@H](O)[C@H](O)[C@H]4O)C(C)(C)[C@@H]3CC[C@]12C [Ginsenoside Rb2] |  |  |  |  |  |

| Compound | Plasma concentration, 0 h ([1]; in vivo, po) | Plasma concentration, 1 h ([1]; in vivo, po) | Plasma concentration, 2 h ([1]; in vivo, po) | Plasma concentration, 8 h ([1]; in vivo, po) | Stability in gastric pH solution, Quantitative value ([2]; 0.5 h, pH 1.2) [ng/mL] | Stability in gastric pH solution, Quantitative value ([2]; 1 h, pH 1.2) [ng/mL] | Stability in gastric pH solution, Quantitative value ([2]; 2 h, pH 1.2) [ng/mL] | Amount in urine, 0–4 h [3] | Amount in urine, 4–8 h [3] [ng] | Amount in urine, Pre [3] | Plasma concentration, 0.5 h ([1]; in vivo, po) | Stability in gastric pH solution, Quantitative value [2, 4] [ng/mL] | Stability in gastric pH solution, Quantitative value [2, 5] [ng/mL] | Stability in gastric pH solution, Quantitative value [2, 6] [ng/mL] | other results |
| --- | --- | --- | --- | --- | --- | --- | --- | --- | --- | --- | --- | --- | --- | --- | --- |
| CC1(C)[C@@H](O[C@@H]2O[C@H](C(=O)O)[C@@H](O)[C@H](O)[C@H]2O)CC[C@]2(C)[C@H]3C(=O)C=C4[C@@H]5C[C@@](C)(C(=O)O)CC[C@]5(C)CC[C@@]4(C)[C@]3(C)CC[C@@H]12 [Glycyrrhetic acid 3-O-glucuronide, Glycyrrhetinic acid 3-O-glucuronide] | BQL | 0.0448 ± 0.0895 ng/mL | 0.244 ± 0.0735 ng/mL | 0.247 ± 0.0622 ng/mL |  |  |  | BQL | 6.94 ± 13.9 | BQL | BQL |  |  |  | Plasma concentration, 4 h ([1]; in vivo, po): 0.327 ± 0.0656 ng/mL |
| CC1(C)CC[C@]2(C(=O)O)CC[C@]3(C)C(=CC[C@@H]4[C@@]5(C)CC[C@H](O)C(C)(C)[C@@H]5CC[C@]43C)[C@@H]2C1 [Oleanolic acid] | BQL | BQL |  |  |  |  |  |  |  |  | BQL | 3.61 | 3.54 | 3.28 | concentration at 2 h ([1]; human, in vivo, po): 0.198 ± 0.395 ng/mL; concentration at 4 h ([1]; human, in vivo, po): 0.903 ± 0.983 ng/mL; concentration at 8 h ([1]; human, in vivo, po): 1.12 ± 0.89 ng/mL; Cmax ([1]; human, in vivo, rikkunshito 7.5 g, four subjects, highest mean concentration over 0–8 h, read-out: C max in plasma (exploratory trial)): 1.12 ng/mL |
| CC(C)=CCC[C@](C)(O)[C@H]1CC[C@]2(C)[C@@H]1[C@H](O)C[C@@H]1[C@@]3(C)CC[C@H](O)C(C)(C)[C@@H]3[C@@H](O[C@@H]3O[C@H](CO)[C@@H](O)[C@H](O)[C@H]3O[C@@H]3O[C@H](CO)[C@@H](O)[C@H](O)[C@H]3O)C[C@]12C [Ginsenoside Rf] |  |  |  |  |  |  |  | 48.2 ± 64.4 ng | 23.0 ± 20.4 | BQL |  | 190 | 159 | 113 |  |
